The values that follow come from US10207982B2, “Solid forms of desvenlafaxine” (ALPARIS, S.A. DE C.V., priority 2016, dated 2019).

Data set [1] can be described thus: Dissolution rate test in Wood apparatus, amorphous NSF. It is filed as physicochemical. As to conditions: for Dissolution Rate Constants: 150 mg tablets, 37° C., 50 rpm; for Difference in dissolution rate between dissolution media: pH 1.2 versus pH 6.8; for Dissolution rate as compared to the neutral DSV: FIGS. 4A-4I, different pH values. As to the method:
The dissolution rate tests were performed in aqueous media, in a Wood apparatus with 150 mg tablets at 37° C. and 50 rpm in different dissolution media, as shown in Tables 2 and 3.

A short description of data set [2]: Indicative physical stability test (X-ray powder diffraction). It is filed as physicochemical. Particulars: 40° C., 75% humidity, 30 days. As for the experimental part: The amorphous NSF obtained from DSV:3-HB, DSV:3,4-DHB and DSV:3,4,5-THB were subjected to physical stability tests, wherein the NSF were subjected to temperatures of 45 and 50° C. in dry conditions (no humidity), and to 40° C., 75% humidity for 30 days.

A short description of data set [3]: Comparative dissolution profiles of five solid phases. It is filed as physicochemical. More on the design: Dissolution rate constant k: unit not given here. As to conditions: for Dissolution rate relative to the other shown phases: pH 1.2, 4.5 and 6.8; for Dissolution rate constant k: 37° C., 50 rpm. As for the experimental part: FIG. 14. Dissolution profile in HCl solution (pH 1.2, 37° C., 50 rpm, n=3, ±SD) of the new crystalline solid phase of desvenlafaxine-3,4-dihydroxybenzoic acid (crystalline DSV:3,4-DHB), and comparison with the new amorphous solid phase of desvenlafaxine-3,4-dihydroxybenzoic acid (amorphous DSV:3,4-DHB), the new crystalline solid phase of desvenlafaxine-2,4-dihydroxybenzoic acid (crystalline DSV:2,4-DHB), desvenlafaxine (DSV), and desvenlafaxine succinate (DSV succinate). FIG. 15. Dissolution profile in acetate buffer (pH 4.5, 37° C., 50 rpm, n=3, ±SD) of the new crystalline solid phase of desvenlafaxine-3,4-dihidroxibenzoic acid (crystalline DSV:3,4-DHB), and comparison with the new amorphous solid phase of desvenlafaxine-3,4-dihydroxybenzoic acid (amorphous DSV:3,4-DHB), the new crystalline solid phase of desvenlafaxine-2,4-dihydroxybenzoic acid (crystalline DSV:2,4-DHB), desvenlafaxine (DSV), and desvenlafaxine succinate (DSV succinate). FIG. 16. Dissolution profile in phosphate buffer (pH 6.8, 37° C., 50 rpm, n=3, ±SD) of the new crystalline solid phase of desvenlafaxine-3,4-dihydroxybenzoic acid (crystalline DSV:3,4-DHB), and comparison with the new amorphous solid phase of desvenlafaxine-3,4-dihydroxybenzoic acid (amorphous DSV:3,4-DHB), the new crystalline solid phase of desvenlafaxine-2,4-dihydroxybenzoic acid (crystalline DSV:2,4-DHB), desvenlafaxine (DSV), and desvenlafaxine succinate (DSV succinate). A comparative test was carried out for the dissolution profiles at pH 1.2, 4.5 and 6.8 for the new crystalline phase DSV:3,4-DHB with respect to the amorphous NSF with the same co-former, the crystalline NSF with 2,4-dihydroxybenzoic acid, as well as desvenlafaxine base and the commercial salt (desvenlafaxine succinate).

Data set [4] can be described thus: Thermogravimetric analysis (TGA/DSC) of crystalline NSF. The data set is classed as physicochemical. As for the experimental part:
The compound was observed as stable until 190° C., the temperature at which decomposition starts to occur.
The crystalline NSF of DSV:2,4-DHB was also characterized by X-ray powder diffraction (see FIG. 10), as well as thermogravimetric analysis (TGA/DSC) (see FIG. 11).

Data set [5] in a line: Intrinsic dissolution of the crystalline NSF DSV:3,4-DHB. The data set is classed as physicochemical. As to the method:
Dissolution profiles were assessed for the crystalline NSF of DSV:3,4-DHB. The rate constant values are grouped in Table 6.

The format of data set [6] is physicochemical. The text has this: Solubility tests could not be determined because the amorphous NSF obtained are very soluble and a large amount is required to saturate the solution.

In the case of `CN(C)CC(c1ccc(O)cc1)C1(O)CCCCC1` (racemic) [DSV, (±)-1-[2-(dimethylamino)-1-(4-hydroxyphenyl)ethyl]cyclohexanol, reference compound], the “Dissolution Rate Constants” value in data set [1] (pH 1.2) worked out at 6.9 mg/cm^2 · min; in data set [1] (pH 4.5), 1.2 mg/cm^2 · min; in data set [1] (pH 6.8), 0.5 mg/cm^2 · min; in data set [1] (water), 0.0 mg/cm^2 · min. In data set [1], the “Difference in dissolution rate between dissolution media” value is listed as 14 times higher.

`CN(C)CC(c1ccc(O)cc1)C1(O)CCCCC1.O=C(O)c1ccc(O)c(O)c1` (centres unmarked) [Amorphous DSV:3,4-DHB, desvenlafaxine-3,4-dihydroxybenzoic acid]: the “Dissolution rate as compared to the neutral DSV” value in data set [1] is on record as “higher dissolution rate”. The “Dissolution Rate Constants” value in data set [1] (pH 1.2) came to 4.4 mg/cm^2 · min; in data set [1] (pH 4.5), 5.0 mg/cm^2 · min; in data set [1] (pH 6.8) it was 5.7 mg/cm^2 · min; in data set [1] (water), 2.3 mg/cm^2 · min. Moreover, the “Difference in dissolution rate between dissolution media” value in data set [1] is “lower or almost null difference”. Moreover, the Physical stability result in data set [2] is listed as “only possible to characterize”. In addition, the “Quotient (kNSF/kDSV)” value in data set [3] (pH 1.2) was determined as 5.0; in data set [3] (pH 4.5), 18.4; in data set [3] (pH 6.8), 17.0. Further, the “Dissolution rate relative to the other shown phases” value in data set [3] was “the higher dissolution rate”. The “Dissolution rate constant k” value was found to be 6.69 in data set [3] (pH 1.2, HCl solution); 6.81 in data set [3] (pH 4.5, acetate buffer); 5.45 in data set [3] (pH 6.8, phosphate buffer).

As for `CN(C)CC(c1ccc(O)cc1)C1(O)CCCCC1.O=C(O)c1ccc(O)cc1O` (centres unmarked) [Crystalline DSV:2,4-DHB, desvenlafaxine-2,4-dihydroxybenzoic acid], the “Stable until, temperature at which decomposition starts” value in data set [4] is “about 150 °C”. Also, the “Quotient (kNSF/kDSV)” value is 0.79 in data set [3] (pH 1.2), 0.94 in data set [3] (pH 4.5) and 0.71 in data set [3] (pH 6.8). In addition, the “Dissolution rate relative to the other shown phases” value in data set [3] was “lower dissolution rate than the commercial salt (succinate) and any of the other shown phases”. For the same molecule, the “Dissolution rate constant k” value in data set [3] (pH 1.2, HCl solution) amounted to 1.07; in data set [3] (pH 4.5, acetate buffer), 0.35; in data set [3] (pH 6.8, phosphate buffer) it was 0.23.

On to `CN(C)CC(c1ccc(O)cc1)C1(O)CCCCC1.O=C(O)c1ccc(O)c(O)c1` (centres unmarked) [Crystalline DSV:3,4-DHB, 3,4-dihydroxybenzoate salt of anhydrous desvenlafaxine], for which the “Intrinsic dissolution rate constant k” value in data set [5] (pH 1.2) is 2.48 mg/cm2 · min; in data set [5] (pH 4.5) it was 2.19 mg/cm2 · min; in data set [5] (pH 6.8), 1.43 mg/cm2 · min. Moreover, the “Stable until, temperature at which decomposition starts” value in data set [4] was 190 °C. For the same molecule, the “Quotient (kNSF/kDSV)” value was 1.8 in data set [3] (pH 1.2), 5.9 in data set [3] (pH 4.5) and 4.8 in data set [3] (pH 6.8). Besides, the “Dissolution rate constant k” value in data set [3] (pH 1.2, HCl solution) stood at 2.47; in data set [3] (pH 4.5, acetate buffer), 2.19; in data set [3] (pH 6.8, phosphate buffer) it was 1.54.

As for `CN(C)CC(c1ccc(O)cc1)C1(O)CCCCC1` (centres unmarked) [DSV-Succinate, desvenlafaxine succinate, reference compound], the “Quotient (kNSF/kDSV)” value in data set [3] (pH 1.2) is 2.1; in data set [3] (pH 4.5), 6.9; in data set [3] (pH 6.8) it was 10.0.

As to `CN(C)CC(c1ccc(O)cc1)C1(O)CCCCC1.O=C(O)c1cc(O)c(O)c(O)c1` (centres unmarked) [DSV:3,4,5-THB, desvenlafaxine-3,4,5-trihydroxybenzoic acid], the Solubility result in data set [6] is given as “the solution did not become saturated”. For the same molecule, the “Dissolution rate as compared to the neutral DSV” value in data set [1] was “higher dissolution rate”. For the same molecule, the “Dissolution Rate Constants” value is 5.4 mg/cm^2 · min in data set [1] (pH 1.2), 6.1 mg/cm^2 · min in data set [1] (pH 4.5), 9.0 mg/cm^2 · min in data set [1] (pH 6.8) and 1.6 mg/cm^2 · min in data set [1] (water).

As to `CN(C)CC(c1ccc(O)cc1)C1(O)CCCCC1.O=C(O)c1cccc(O)c1` (centres unmarked) [DSV:3-HB, desvenlafaxine-3-hydroxybenzoic acid], the “Dissolution Rate Constants” value worked out at 5.8 mg/cm^2 · min in data set [1] (pH 1.2), 6.1 mg/cm^2 · min in data set [1] (pH 4.5), 5.4 mg/cm^2 · min in data set [1] (pH 6.8) and 3.8 mg/cm^2 · min in data set [1] (water).
